Key:
[1] = target: T1, Lysine-specific demethylase 4A (Homo sapiens, UniProt O75164)
T1 sequence (O75164 whole entry): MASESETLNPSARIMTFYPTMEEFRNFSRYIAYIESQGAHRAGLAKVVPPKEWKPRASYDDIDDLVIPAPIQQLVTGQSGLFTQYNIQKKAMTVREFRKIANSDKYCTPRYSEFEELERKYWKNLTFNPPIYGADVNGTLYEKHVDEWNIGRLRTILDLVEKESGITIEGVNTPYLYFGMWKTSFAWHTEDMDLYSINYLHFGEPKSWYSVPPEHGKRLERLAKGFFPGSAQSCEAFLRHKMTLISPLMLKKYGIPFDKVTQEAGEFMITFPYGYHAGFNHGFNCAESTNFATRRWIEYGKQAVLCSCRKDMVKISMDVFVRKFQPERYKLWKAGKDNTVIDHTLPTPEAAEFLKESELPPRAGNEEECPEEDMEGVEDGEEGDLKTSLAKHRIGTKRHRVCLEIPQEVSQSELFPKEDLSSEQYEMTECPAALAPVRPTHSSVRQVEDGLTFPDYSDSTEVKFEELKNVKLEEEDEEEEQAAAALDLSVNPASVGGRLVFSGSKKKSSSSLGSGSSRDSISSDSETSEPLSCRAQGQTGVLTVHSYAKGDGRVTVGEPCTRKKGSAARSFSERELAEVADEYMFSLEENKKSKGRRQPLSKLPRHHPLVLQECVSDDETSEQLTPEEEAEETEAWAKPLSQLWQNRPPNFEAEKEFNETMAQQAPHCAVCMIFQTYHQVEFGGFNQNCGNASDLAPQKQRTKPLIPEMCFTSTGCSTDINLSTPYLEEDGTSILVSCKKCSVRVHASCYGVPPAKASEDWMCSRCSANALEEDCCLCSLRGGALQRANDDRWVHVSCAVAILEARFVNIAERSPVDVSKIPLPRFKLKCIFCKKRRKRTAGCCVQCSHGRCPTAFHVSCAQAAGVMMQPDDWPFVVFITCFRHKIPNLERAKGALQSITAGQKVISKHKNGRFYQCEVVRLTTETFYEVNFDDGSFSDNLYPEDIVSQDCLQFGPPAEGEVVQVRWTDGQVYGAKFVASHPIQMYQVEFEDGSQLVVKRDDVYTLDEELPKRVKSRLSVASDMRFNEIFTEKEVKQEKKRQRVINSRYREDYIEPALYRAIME

[2] = target: T1, Lysine-specific demethylase 4A; remark: listed apart in the source
[3] = target: T2, Lysine-specific demethylase 5A (Homo sapiens, UniProt P29375); design: species or system Sf9
[4] = target: Lysine-specific demethylase 6B (Homo sapiens, UniProt O15054); assay: Inhibition of human C-terminal FLAG-tagged KDM6B (1043 residues) expressed in baculovirus infected sf9 cells using H3K27me3 (21 to 44 residues) substrate preincubated for 10 mins followed by substrate addition measured after 45 mins by TR-FRET assay
[5] = target: T1, Lysine-specific demethylase 4A; remark: listed apart in the source
[6] = target: T3, Lysine-specific demethylase 2A (Homo sapiens, UniProt Q9Y2K7); assay: Competitive inhibition of recombinant His6-tagged KDM2A (1 to 517 residues) (unknown origin) expressed in Escherichia coli BL21 cells using methylstat as substrate preincubated for 30 mins followed by substrate addition measured after 4 hrs by fluorescence polarization assay
T3 sequence (Q9Y2K7 whole entry): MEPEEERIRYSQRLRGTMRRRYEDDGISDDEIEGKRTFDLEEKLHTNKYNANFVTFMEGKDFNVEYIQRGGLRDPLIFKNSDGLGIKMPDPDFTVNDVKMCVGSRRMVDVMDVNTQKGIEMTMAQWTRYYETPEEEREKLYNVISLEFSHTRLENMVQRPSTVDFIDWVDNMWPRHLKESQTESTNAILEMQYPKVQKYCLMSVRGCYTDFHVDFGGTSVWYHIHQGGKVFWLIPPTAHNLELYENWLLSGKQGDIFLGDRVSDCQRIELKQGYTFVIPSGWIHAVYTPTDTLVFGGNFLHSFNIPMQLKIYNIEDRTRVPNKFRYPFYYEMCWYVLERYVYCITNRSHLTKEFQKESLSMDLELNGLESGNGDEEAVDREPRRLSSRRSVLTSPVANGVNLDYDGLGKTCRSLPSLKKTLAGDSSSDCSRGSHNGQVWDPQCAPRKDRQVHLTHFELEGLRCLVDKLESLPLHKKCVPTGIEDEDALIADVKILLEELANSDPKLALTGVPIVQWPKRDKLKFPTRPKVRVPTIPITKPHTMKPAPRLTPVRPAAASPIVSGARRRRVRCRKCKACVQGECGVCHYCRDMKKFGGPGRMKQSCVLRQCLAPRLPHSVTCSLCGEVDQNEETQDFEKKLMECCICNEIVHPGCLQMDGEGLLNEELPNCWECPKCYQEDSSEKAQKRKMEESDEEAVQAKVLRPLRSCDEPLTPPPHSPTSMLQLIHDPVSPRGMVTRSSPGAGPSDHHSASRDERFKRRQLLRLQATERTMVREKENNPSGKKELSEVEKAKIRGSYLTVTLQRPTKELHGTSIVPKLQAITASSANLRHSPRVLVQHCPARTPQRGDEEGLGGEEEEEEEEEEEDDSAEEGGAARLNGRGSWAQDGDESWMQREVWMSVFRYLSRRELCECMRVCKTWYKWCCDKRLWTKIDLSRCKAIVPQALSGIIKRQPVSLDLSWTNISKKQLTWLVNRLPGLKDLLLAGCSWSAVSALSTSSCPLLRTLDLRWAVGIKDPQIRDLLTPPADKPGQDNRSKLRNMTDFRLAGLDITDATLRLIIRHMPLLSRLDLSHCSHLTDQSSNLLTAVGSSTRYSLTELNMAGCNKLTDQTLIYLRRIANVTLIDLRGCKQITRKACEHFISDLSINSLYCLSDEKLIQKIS

[7] = target: T3, Lysine-specific demethylase 2A; assay: Inhibition of KDM2A in human MIAPaCa2 cells assessed as increase in H3K36me2 level after 48 hrs by Hoechst 33258 staining based immunofluorescence assay; assay type: cell-based, MIA PaCa-2
[8] = Growth inhibition of human MIAPaCa2 cells after 48 hrs by CellTiter-Glo assay; assay type: functional; settings: MIA PaCa-2, 48 h
[9] = target: T1, Lysine-specific demethylase 4A; assay: biochemical
[10] = target: T2, Lysine-specific demethylase 5A

T2 sequence (P29375 whole entry, the tested form may be a part): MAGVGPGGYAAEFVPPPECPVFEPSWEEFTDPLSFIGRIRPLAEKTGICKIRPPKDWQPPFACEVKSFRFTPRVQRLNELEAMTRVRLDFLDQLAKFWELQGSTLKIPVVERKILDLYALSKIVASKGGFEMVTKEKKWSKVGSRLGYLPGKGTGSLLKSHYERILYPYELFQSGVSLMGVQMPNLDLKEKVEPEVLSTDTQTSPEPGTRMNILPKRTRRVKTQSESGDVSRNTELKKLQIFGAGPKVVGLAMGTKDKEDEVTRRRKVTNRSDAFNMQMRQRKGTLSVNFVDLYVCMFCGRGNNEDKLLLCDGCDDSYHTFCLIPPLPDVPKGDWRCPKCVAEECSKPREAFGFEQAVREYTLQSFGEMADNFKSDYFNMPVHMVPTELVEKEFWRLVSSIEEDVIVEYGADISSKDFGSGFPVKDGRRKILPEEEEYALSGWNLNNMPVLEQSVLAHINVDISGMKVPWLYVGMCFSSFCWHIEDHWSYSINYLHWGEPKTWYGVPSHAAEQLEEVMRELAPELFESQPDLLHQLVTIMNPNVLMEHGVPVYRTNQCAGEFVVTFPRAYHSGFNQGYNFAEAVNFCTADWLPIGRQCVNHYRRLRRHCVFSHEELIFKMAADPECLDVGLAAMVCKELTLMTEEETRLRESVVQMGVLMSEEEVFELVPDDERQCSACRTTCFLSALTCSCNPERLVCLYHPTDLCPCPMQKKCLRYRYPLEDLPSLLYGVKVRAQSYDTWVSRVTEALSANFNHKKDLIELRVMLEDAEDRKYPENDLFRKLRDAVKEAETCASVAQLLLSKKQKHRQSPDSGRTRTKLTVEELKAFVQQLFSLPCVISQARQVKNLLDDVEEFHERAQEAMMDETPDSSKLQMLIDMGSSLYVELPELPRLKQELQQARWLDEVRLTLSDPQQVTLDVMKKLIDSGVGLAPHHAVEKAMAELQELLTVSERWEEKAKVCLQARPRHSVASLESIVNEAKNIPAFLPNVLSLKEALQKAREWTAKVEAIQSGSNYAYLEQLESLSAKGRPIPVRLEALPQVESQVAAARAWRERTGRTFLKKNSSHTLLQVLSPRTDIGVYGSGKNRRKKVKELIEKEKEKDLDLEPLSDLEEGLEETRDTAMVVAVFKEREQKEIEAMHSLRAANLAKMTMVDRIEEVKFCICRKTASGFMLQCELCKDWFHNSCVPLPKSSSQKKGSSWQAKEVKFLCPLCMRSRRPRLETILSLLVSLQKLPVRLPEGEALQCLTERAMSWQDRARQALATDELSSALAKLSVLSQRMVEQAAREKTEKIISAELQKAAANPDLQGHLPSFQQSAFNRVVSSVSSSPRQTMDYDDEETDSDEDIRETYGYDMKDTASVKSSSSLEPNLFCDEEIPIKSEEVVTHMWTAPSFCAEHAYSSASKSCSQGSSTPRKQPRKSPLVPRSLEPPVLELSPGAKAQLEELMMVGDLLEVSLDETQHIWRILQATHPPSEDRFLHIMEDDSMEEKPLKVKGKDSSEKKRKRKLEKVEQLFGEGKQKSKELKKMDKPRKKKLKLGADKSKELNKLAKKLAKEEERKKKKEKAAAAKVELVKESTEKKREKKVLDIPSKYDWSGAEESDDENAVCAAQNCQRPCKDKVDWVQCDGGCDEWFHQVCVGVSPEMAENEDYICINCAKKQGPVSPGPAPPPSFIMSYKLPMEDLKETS
Lysine-specific demethylase 6B, sequence (O15054 whole entry, the tested form may be a part): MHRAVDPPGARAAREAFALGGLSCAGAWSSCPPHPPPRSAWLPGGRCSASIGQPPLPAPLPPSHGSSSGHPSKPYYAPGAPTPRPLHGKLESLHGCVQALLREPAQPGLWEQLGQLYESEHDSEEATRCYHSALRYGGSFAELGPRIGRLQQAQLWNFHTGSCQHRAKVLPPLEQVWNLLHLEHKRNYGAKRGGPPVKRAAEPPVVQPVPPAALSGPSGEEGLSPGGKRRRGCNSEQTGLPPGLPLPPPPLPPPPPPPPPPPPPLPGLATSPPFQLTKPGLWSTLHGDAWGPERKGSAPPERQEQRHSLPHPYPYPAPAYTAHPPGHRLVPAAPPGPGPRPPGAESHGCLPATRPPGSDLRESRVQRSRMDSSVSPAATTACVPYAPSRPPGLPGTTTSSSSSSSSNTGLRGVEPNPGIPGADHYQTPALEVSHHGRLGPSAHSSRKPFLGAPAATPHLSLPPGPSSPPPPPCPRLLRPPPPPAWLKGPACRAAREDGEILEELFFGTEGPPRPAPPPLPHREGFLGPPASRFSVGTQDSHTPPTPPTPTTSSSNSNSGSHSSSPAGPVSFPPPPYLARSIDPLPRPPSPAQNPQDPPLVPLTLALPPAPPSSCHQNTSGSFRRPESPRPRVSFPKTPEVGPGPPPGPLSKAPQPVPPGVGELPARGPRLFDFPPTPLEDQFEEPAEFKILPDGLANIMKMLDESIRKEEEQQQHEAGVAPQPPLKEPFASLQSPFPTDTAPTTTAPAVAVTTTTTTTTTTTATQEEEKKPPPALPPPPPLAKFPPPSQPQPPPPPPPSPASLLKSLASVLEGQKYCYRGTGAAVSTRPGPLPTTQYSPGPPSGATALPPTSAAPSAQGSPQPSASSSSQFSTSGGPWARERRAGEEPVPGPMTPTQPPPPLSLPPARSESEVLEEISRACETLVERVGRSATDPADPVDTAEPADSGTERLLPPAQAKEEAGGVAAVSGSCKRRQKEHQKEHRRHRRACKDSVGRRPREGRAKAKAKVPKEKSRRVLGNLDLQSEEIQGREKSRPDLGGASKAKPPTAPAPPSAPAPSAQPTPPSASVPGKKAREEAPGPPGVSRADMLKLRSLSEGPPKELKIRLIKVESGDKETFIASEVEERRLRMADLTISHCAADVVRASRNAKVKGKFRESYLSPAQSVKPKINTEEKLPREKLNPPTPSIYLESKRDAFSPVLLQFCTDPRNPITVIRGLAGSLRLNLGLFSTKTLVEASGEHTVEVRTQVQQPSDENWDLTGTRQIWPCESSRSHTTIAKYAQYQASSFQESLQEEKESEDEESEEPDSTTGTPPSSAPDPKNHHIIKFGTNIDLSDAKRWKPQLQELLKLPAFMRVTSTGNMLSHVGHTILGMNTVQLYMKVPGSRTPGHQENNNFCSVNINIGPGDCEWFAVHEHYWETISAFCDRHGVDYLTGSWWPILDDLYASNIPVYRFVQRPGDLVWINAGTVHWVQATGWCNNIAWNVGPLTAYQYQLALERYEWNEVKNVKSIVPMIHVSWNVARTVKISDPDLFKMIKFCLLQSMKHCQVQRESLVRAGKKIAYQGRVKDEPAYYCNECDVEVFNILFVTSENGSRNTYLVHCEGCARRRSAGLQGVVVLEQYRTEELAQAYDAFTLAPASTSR

NNC(=O)Cc1nnn[nH]1
IC50 [1]: 46.6 µM
IC50 [2]: 2400 nM
IC50 [3]: 10.4 µM
IC50 [4]: 98 µM
Ki [5]: 1940 nM

CCCCCC[n+]1ccc(/C=C/c2ccc(N(C)C)cc2)cc1
Ki [6]: 280 nM
EC50 [7]: 280 nM
GI50 [8]: 71 nM
Ki [9]: 420 nM

CCCCc1oc2ccccc2c1C(=O)c1cc(I)c(OCCCC[N+](C)(C)C)c(I)c1
IC50 [10]: 41 µM
